Measured values: US4760053A, “Combination therapy for selected sex steroid dependent cancers” (priority 1985, dated 1988)

Assays:
advanced breast cancer = conditions: cited from earlier work
serum testosterone = test: LHRH agonist-induced serum testosterone in the dog; assay type: in vivo; conditions: dogs; for prevention of the rise in serum testosterone during the first days of treatment with the peptide: given per os three times daily together with 50 μg LHRH-A daily (aminoglutethimide group plus hydrocortisone)
Procedure: Eighteen mongrel dogs weighing between 20-30 kg were randomly divided into three groups. The animals were housed one per cage and fed Purina Dog Chow and tap water ad libitum.
The animals of group 1 were injected daily (at 0700 h) with 50 μg of the LHRH agonist [D-Trp^6, des-Gly-NH2^10 ]LHRH ethylamide (LHRH-A). In group 2, the animals were also injected daily with 50 μg of LHRH-A and took in addition 200 mg of ketoconazole per os at 0700 h, 1500 h and 2300 h. The animals of group 3 received daily 50 μg of LHRH-A and 125 mg of aminoglutethimide per os at 0700 h, 1500 h, 2300 h plus 10 mg of hydrocortisone twice daily.
Blood samples were collected at 0700 h, 0900 h, 1100 h and 1500 h one day before treatment and every day during the treatment. Plasma was extracted with diethyl ether and testosterone was separated on LH-20 columns before RIA measurements.

testosterone levels = conditions: rodents, in combination with chronic administration of Leuprolide; cited from earlier work
[1] = system: MCF7 human breast tumor cells; conditions: inhibitory activity antagonized by estradiol; cited from earlier work

Compound: CC/C(=C(\c1ccccc1)c1ccc(OCCN(C)C)cc1)c1ccccc1 [Tamoxifen, (Z)-2-[4-(1,2-diphenyl-1-butenyl)phenoxy]-N,N-dimethylethanamine]
- remission of advanced breast cancer, share of patients treated (advanced breast cancer; Tamoxifen alone): about 30%
- objective remission of breast cancer (advanced breast cancer; combined use with the LH-RH agonist Buserelin): 35%

Compound: CCNC(=O)[C@@H]1CCCN1C(=O)[C@H](CCCNC(=N)N)NC(=O)[C@H](CC(C)C)NC(=O)[C@@H](Cc1c[nH]c2ccccc12)NC(=O)[C@H](Cc1ccc(O)cc1)NC(=O)[C@H](CO)NC(=O)[C@H](Cc1c[nH]c2ccccc12)NC(=O)[C@H](Cc1c[nH]cn1)NC(=O)[C@@H]1CCC(=O)N1 [[D-Trp^6 des-Gly-NH2^10]LHRH ethylamide, [D-Trp^6, des-Gly-NH2^10]LHRH ethylamide]
- level of serum testosterone on day 19 (serum testosterone; daily injection of 50 μg, day 19): near-castration levels
- increase in serum testosterone (serum testosterone; daily injection of 50 μg, one to six days after start of treatment): approximately 500 % above control

Compound: CCC1(c2ccc(N)cc2)CCC(=O)NC1=O (centres unmarked) [aminoglutethimide, 3-(4-aminophenyl)-3-ethyl-2,6-piperidinedione]
- prevention of the rise in serum testosterone during the first days of treatment with the peptide (serum testosterone): almost completely prevented

Compound: CC(=O)N1CCN(c2ccc(OCC3COC(Cn4ccnc4)(c4ccc(Cl)cc4Cl)O3)cc2)CC1 (centres unmarked) [ketoconazole]
- basal and Leuprolide stimulated testosterone levels (testosterone levels): decreased
- prevention of the rise in serum testosterone during the first days of treatment with the peptide (serum testosterone): almost completely prevented

Compound: CC[C@H](c1cccc(O)c1)[C@@H](CC)c1cccc(O)c1 [meso-3,4-bis(3'-hydroxyphenyl)hexane]
- inhibition of MCF7 human breast tumor cells [1]: inhibits
